From PubChem BioAssay AID1845207 (Molecular Pharmacology Branch, DTP, NCI, 2023)

Tested on: NCI-H1876 tumor spheroid viability
Assay: Anticancer human tumor NCI-H1876 cell line growth inhibition;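 note: spheroids exposed to compounds for seven days before the viability read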;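 for viability, T/C: percent of DMSO vehicle control viability so 100% = vehicle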
Details: spheroids with HUVEC and MSC; for IC50: curve of first compound; for viability, T/C: stronger effect = lower value
In short: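 Single agents and combinations were tested on spheroids built from tumor cells plus HUVEC and hMSC, at half-log dilutions starting at or near clinical Cmax, else 10 microM; final DMSO 0.25% (v/v).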

[1] = second compound 0.003 µM, first compound 0.0316 µM
[2] = second compound 0.003 µM, first compound 0.1 µM
[3] = second compound 0.003 µM, first compound 0.316 µM
[4] = second compound 0.003 µM, first compound 1 µM
[5] = second compound 0.003 µM, first compound 3.16 µM
[6] = second compound 0.003 µM, first compound 10 µM
[7] = second compound 0.00949 µM, first compound 0.0316 µM
[8] = second compound 0.00949 µM, first compound 0.1 µM
[9] = second compound 0.00949 µM, first compound 0.316 µM
[10] = second compound 0.00949 µM, first compound 1 µM
[11] = second compound 0.00949 µM, first compound 3.16 µM
[12] = second compound 0.00949 µM, first compound 10 µM
[13] = second compound 0.03 µM, first compound 0.0316 µM
[14] = second compound 0.03 µM, first compound 0.1 µM
[15] = second compound 0.03 µM, first compound 0.316 µM
[16] = second compound 0.03 µM, first compound 1 µM
[17] = second compound 0.03 µM, first compound 3.16 µM
[18] = second compound 0.03 µM, first compound 10 µM
[19] = second compound 0.0949 µM, first compound 0.0316 µM
[20] = second compound 0.0949 µM, first compound 0.1 µM
[21] = second compound 0.0949 µM, first compound 0.316 µM
[22] = second compound 0.0949 µM, first compound 1 µM
[23] = second compound 0.0949 µM, first compound 3.16 µM
[24] = second compound 0.0949 µM, first compound 10 µM
[25] = second compound 0.3 µM, first compound 0.0316 µM
[26] = second compound 0.3 µM, first compound 0.1 µM
[27] = second compound 0.3 µM, first compound 0.316 µM
[28] = second compound 0.3 µM, first compound 1 µM
[29] = second compound 0.3 µM, first compound 3.16 µM
[30] = second compound 0.3 µM, first compound 10 µM

| SMILES | IC50 (second compound 0.003 µM) [nM] | IC50 (second compound 0.00949 µM) [nM] | IC50 (second compound 0.03 µM) [nM] | IC50 (second compound 0.0949 µM) [nM] | IC50 (second compound 0.3 µM) [nM] | viability, T/C [1] [%] | viability, T/C [2] [%] | viability, T/C [3] [%] | viability, T/C [4] [%] | viability, T/C [5] [%] | viability, T/C [6] [%] | viability, T/C [7] [%] | viability, T/C [8] [%] | viability, T/C [9] [%] | viability, T/C [10] [%] | viability, T/C [11] [%] | viability, T/C [12] [%] | viability, T/C [13] [%] | viability, T/C [14] [%] | viability, T/C [15] [%] | other results |
| --- | --- | --- | --- | --- | --- | --- | --- | --- | --- | --- | --- | --- | --- | --- | --- | --- | --- | --- | --- | --- | --- |
| CC(C)n1c(=O)n(C)c2cnc3cc(F)c(-c4ccc(OCCCN5CCCCC5)nc4)cc3c21 + CC[C@@]1(O)C(=O)OCc2c1cc1n(c2=O)Cc2cc3c(CN(C)C)c(O)ccc3nc2-1 | < 31.6 | < 31.6 | < 31.6 | < 31.6 | < 31.6 | 25.1 | 25.5 | 34.6 | 45.5 | 44.1 | 28.1 | 5.02 | 4.95 | 5.93 | 7.51 | 10.2 | 11.6 | 2.64 | 2.9 | 2.81 | viability, T/C [16]: 3.34%; viability, T/C [17]: 3.91%; viability, T/C [18]: 4.32%; viability, T/C [19]: 2.03%; viability, T/C [20]: 2.07%; viability, T/C [21]: 2.33%; viability, T/C [22]: 2.86%; viability, T/C [23]: 2.99%; viability, T/C [24]: 3.42%; viability, T/C [25]: 1.97%; viability, T/C [26]: 2.19%; viability, T/C [27]: 1.74%; viability, T/C [28]: 2.16%; viability, T/C [29]: 2.86%; viability, T/C [30]: 2.71% |
| CC1COCCN1c1cc(-c2ccnn2C)c2ccnc(-c3ccn[nH]3)c2n1 (stereo not given) + CC[C@@]1(O)C(=O)OCc2c1cc1n(c2=O)Cc2cc3c(CN(C)C)c(O)ccc3nc2-1 | < 31.6 | < 31.6 | < 31.6 | < 31.6 | < 31.6 | 16.2 | 9.61 | 6.33 | 5.32 | 2.8 | 3.12 | 6.81 | 5.86 | 5.29 | 3.16 | 2.62 | 4.77 | 3.3 | 3.5 | 3.31 | viability, T/C [16]: 2.97%; viability, T/C [17]: 2.42%; viability, T/C [18]: 2.82%; viability, T/C [19]: 2.58%; viability, T/C [20]: 2.23%; viability, T/C [21]: 2.26%; viability, T/C [22]: 2.14%; viability, T/C [23]: 2.41%; viability, T/C [24]: 2.01%; viability, T/C [25]: 2.18%; viability, T/C [26]: 2.1%; viability, T/C [27]: 2.02%; viability, T/C [28]: 2.7%; viability, T/C [29]: 1.91%; viability, T/C [30]: 1.92% |
| COc1cc(C)[nH]c(=O)c1CN1CCc2c(Cl)cc(C(OC)C3COC3)c(Cl)c2C1=O (stereo not given) + CC[C@@]1(O)C(=O)OCc2c1cc1n(c2=O)Cc2cc3c(CN(C)C)c(O)ccc3nc2-1 | > 10000 | < 31.6 | < 31.6 | < 31.6 | < 31.6 | 92.3 | 88.3 | 82.6 | 79.3 | 80.6 | 73.7 | 32.3 | 19.7 | 19.2 | 19.4 | 17.3 | 18.6 | 3.49 | 3.03 | 3.24 | viability, T/C [16]: 2.91%; viability, T/C [17]: 3.73%; viability, T/C [18]: 3.6%; viability, T/C [19]: 2.58%; viability, T/C [20]: 2.48%; viability, T/C [21]: 2.58%; viability, T/C [22]: 2.45%; viability, T/C [23]: 2.45%; viability, T/C [24]: 3.12%; viability, T/C [25]: 2.06%; viability, T/C [26]: 2.39%; viability, T/C [27]: 2.29%; viability, T/C [28]: 1.79%; viability, T/C [29]: 2.16%; viability, T/C [30]: 2.06% |
| COc1ccc([C@@H](O)c2cc(-c3ncnc4cc(N5CCOCC5)ccc34)c(F)cc2Cl)nn1 + CC[C@@]1(O)C(=O)OCc2c1cc1n(c2=O)Cc2cc3c(CN(C)C)c(O)ccc3nc2-1 | 1650 | < 31.6 | < 31.6 | < 31.6 | < 31.6 | 88.7 | 83.7 | 85.3 | 67.1 | 27.6 | 10.9 | 15.9 | 15.2 | 17.8 | 12.2 | 8.75 | 5.67 | 3.61 | 6.14 | 3.33 | viability, T/C [16]: 3.01%; viability, T/C [17]: 2.56%; viability, T/C [18]: 2.82%; viability, T/C [19]: 2.02%; viability, T/C [20]: 2.62%; viability, T/C [21]: 2.15%; viability, T/C [22]: 2.18%; viability, T/C [23]: 1.69%; viability, T/C [24]: 2.92%; viability, T/C [25]: 1.88%; viability, T/C [26]: 1.98%; viability, T/C [27]: 1.62%; viability, T/C [28]: 1.27%; viability, T/C [29]: 1.46%; viability, T/C [30]: 1.93% |
| [2H]c1nc(C)nc([2H])c1-c1cc(NC[C@@H](C)c2cccc3c(C(=O)NC)ccnc23)ncn1 + CC[C@@]1(O)C(=O)OCc2c1cc1n(c2=O)Cc2cc3c(CN(C)C)c(O)ccc3nc2-1 | > 10000 | < 31.6 | < 31.6 | < 31.6 | < 31.6 | 93.3 | 89.6 | 93.9 | 87.1 | 85.1 | 78.5 | 25.2 | 22.2 | 24 | 21.4 | 19.7 | 17.1 | 3.65 | 4.05 | 3.87 | viability, T/C [16]: 4.16%; viability, T/C [17]: 4.24%; viability, T/C [18]: 4.06%; viability, T/C [19]: 2.96%; viability, T/C [20]: 2.98%; viability, T/C [21]: 2.95%; viability, T/C [22]: 3.01%; viability, T/C [23]: 2.71%; viability, T/C [24]: 3.38%; viability, T/C [25]: 2.42%; viability, T/C [26]: 2.48%; viability, T/C [27]: 2.48%; viability, T/C [28]: 2.74%; viability, T/C [29]: 2.32%; viability, T/C [30]: 2.21% |
